Results taken from patent publication US5935954A, “Compounds with improved multi-drug resistance activity” (Vertex Pharmaceuticals Incorporated, priority 1997, dated 1999).

These compounds were tested against FKBP12 (Homo sapiens, UniProt P62942) (assay: FKBP12 binding assay (inhibition of rotomase activity)). Conditions: apparent Ki.
Type: biochemical
Source text: Preferably, the assay measures inhibition of FKBP12 rotomase activity. Such an assay has also been described by M. W. Harding et al., supra and by J. J. Siekierka et al., supra. In this assay the isomerization of an artificial substrate--N-succinyl-Ala-Ala-Pro-Phe-p-nitroanilide--is followed spectrophotometrically. The assay includes the cis form of the substrate, FKBP12, the inhibitor and chymotrypsin. Chymotrypsin is able to cleave p-nitroanilide from the trans form of the substrate, but not the cis form. Release of p-nitroanilide is measured.
The inhibition of FKBP rotomase activity by the preferred FKBP12 binding compounds present in the compositions of this invention was assayed. In this assay various quantities of FKBP12 binding compound (0nM-10 μM) were added to cis-N-succinyl-Ala-Ala-Pro-Phe-p-nitroanilide in the presence of FKBP12 and chymotrypsin. FKBP12 converts the cis form of the substrate to the trans form. This allows chymotrypsin to cleave p-nitroanilide from the substrate. Release of p-nitroanilide was measured spectrophotometrically. This assay allowed me to measure the change in the first order rate constant of the rotomase activity as a function of FKBP12 binding compound concentration and yielded an estimate of apparent Ki.

Chain of FKBP12 (P62942 whole entry, species assumed): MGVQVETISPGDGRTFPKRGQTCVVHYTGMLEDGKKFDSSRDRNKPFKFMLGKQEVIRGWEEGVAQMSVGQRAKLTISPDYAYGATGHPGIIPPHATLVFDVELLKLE

SMILES | Ki [nM]
CCOc1ccc(OCC)c(-c2cccc(C(CCCc3ccccc3)OC(=O)[C@@H]3CCCCN3C(=O)C(=O)c3cc(OC)c(OC)c(OC)c3)c2)c1 (stereo partly drawn) [Compound 4] | > 5000
COc1cc(C(=O)C(=O)N2CCCC[C@H]2C(=O)O[C@@H](CCCc2ccccc2)c2cccc(/C(=C\CCc3ccccc3)c3cccnc3)c2)cc(OC)c1OC [Compound 5] | 4000
COc1cc(C(=O)C(=O)N2CCCC[C@H]2C(=O)O[C@H](CCCc2ccccc2)c2cccc(/C(=C\CCc3ccccc3)c3ccc[n+]([O-])c3)c2)cc(OC)c1OC [Compound 9] | 7
CCOc1ccc(OCC)c(-c2cncc([C@@H](CCCc3ccccc3)OC(=O)[C@@H]3CCCCN3C(=O)C(=O)c3ccc(OC)c(OC)c3)c2)c1 [Compound 11] | 7
CCOc1ccc(OCC)c(-c2cncc([C@H](CCCc3ccccc3)OC(=O)[C@@H]3CCCCN3C(=O)C(=O)c3ccc(OC)c(OC)c3)c2)c1 [Compound 12] | 30
COc1ccc(C(=O)C(=O)N2CCCC[C@H]2C(=O)O[C@H](CCCc2ccccc2)c2cncc(-c3ccccc3OC)c2)cc1OC [Compound 13] | 5
COc1ccc(C(=O)C(=O)N2CCCC[C@H]2C(=O)O[C@@H](CCCc2ccccc2)c2cncc(-c3ccccc3OC)c2)cc1OC [Compound 14] | 12
COc1ccccc1-c1cncc([C@@H](CCCc2ccccc2)OC(=O)[C@@H]2CCCCN2C(=O)C(=O)c2cc(OC)c(OC)c(OC)c2)c1 [Compound 15] | 1
CCC/C=C(/c1cccnc1)c1cccc([C@H](CCCc2ccccc2)OC(=O)[C@@H]2CCCCN2C(=O)C(=O)c2cc(OC)c(OC)c(OC)c2)c1 [Compound 16] | 3300
CCC/C=C(/c1cccnc1)c1cccc([C@@H](CCCc2ccccc2)OC(=O)[C@@H]2CCCCN2C(=O)C(=O)c2cc(OC)c(OC)c(OC)c2)c1 [Compound 17] | 0.6
CCOc1ccccc1-c1cncc([C@@H](CCCc2ccccc2)OC(=O)[C@@H]2CCCCN2C(=O)C(=O)c2cc(OC)c(OC)c(OC)c2)c1 [Compound 18] | 0.4
CCOc1ccccc1-c1cncc([C@@H](CCCc2ccccc2)OC(=O)[C@@H]2CCCCN2C(=O)C(=O)c2ccc(OC)c(OC)c2)c1 [Compound 20] | 5.8
CCOc1ccccc1-c1cncc([C@H](CCCc2ccccc2)OC(=O)[C@@H]2CCCCN2C(=O)C(=O)c2ccc(OC)c(OC)c2)c1 [Compound 21] | 90
CCCOc1ccc(OCCC)c(-c2cncc([C@H](CCCc3ccccc3)OC(=O)[C@@H]3CCCCN3C(=O)C(=O)c3cc(OC)c(OC)c(OC)c3)c2)c1 [Compound 23] | 2500
CC/C=C(/c1cccnc1)c1cccc([C@@H](CCCc2ccccc2)OC(=O)[C@@H]2CCCCN2C(=O)C(=O)c2cc(OC)c(OC)c(OC)c2)c1 [Compound 29] | 1
CCC/C=C(\c1cccnc1)c1cccc([C@H](CCN2CCOCC2)OC(=O)[C@@H]2CCCCN2C(=O)C(=O)c2cc(OC)c(OC)c(OC)c2)c1 [Compound 31] | 130
COc1cc(C(=O)C(=O)N2CCCC[C@H]2C(=O)O[C@@H](/C(C)=C/[C@H]2CC[C@H](O)CC2)c2cncc(-c3c(OC)cccc3OC)c2)cc(OC)c1OC [Compound 33] | 12
CCCC/C=C(/c1cccnc1)c1cccc([C@@H](CCN2CCOCC2)OC(=O)[C@@H]2CCCCN2C(=O)C(=O)c2cc(OC)c(OC)c(OC)c2)c1 [Compound 34] | 6
CCCC/C=C(/c1cccnc1)c1cccc([C@H](CCN2CCOCC2)OC(=O)[C@@H]2CCCCN2C(=O)C(=O)c2cc(OC)c(OC)c(OC)c2)c1 [Compound 35] | 380
CCCC/C=C(/c1cccnc1)c1cccc([C@@H](CCCc2ccccc2)OC(=O)[C@@H]2CCCCN2C(=O)C(=O)c2cc(OC)c(OC)c(OC)c2)c1 [Compound 37] | < 1
CCC/C=C(/c1ccc(C)cc1)c1cncc([C@@H](OC(=O)[C@@H]2CCCCN2C(=O)C(=O)c2ccc(F)cc2)/C(C)=C/[C@H]2CC[C@H](O)CC2)c1 [Compound 38] | 70
CCOCc1cc2ccccc2n1-c1cccc([C@H](OC(=O)[C@@H]2CCCCN2C(=O)C(=O)c2ccco2)/C(C)=C/[C@H]2CC[C@H](O)CC2)c1 [Compound 44] | 53
CCC/C=C(\c1cncc([C@@H](OC(=O)[C@@H]2CCCCN2C(=O)C(=O)c2ccco2)/C(C)=C/[C@H]2CC[C@H](O)CC2)c1)C1CCCCC1 [Compound 45] | 230
COC/C=C(\c1cncc([C@H](OC(=O)[C@@H]2CCCCN2C(=O)C(=O)c2ccco2)/C(C)=C/[C@H]2CC[C@H](O)CC2)c1)C1CCCCC1 [Compound 47] | 84
CCOCc1cccc(COCC)c1-c1csc(C(CCN2CCOCC2)OC(=O)[C@@H]2CCCCN2C(=O)C(=O)C(C)(C)COC)c1 (stereo partly drawn) [Compound 50] | > 10000

The remaining lines, values ahead:

Ki [nM] | SMILES
300 | COc1cc(C(=O)C(=O)N2CCCC[C@H]2C(=O)OC(CCCc2ccccc2)c2cccc(C(=CCCc3ccccc3)c3cccnc3)c2)cc(OC)c1OC (stereo partly drawn) [Compound 3]
24 | COc1cc(C(=O)C(=O)N2CCCC[C@H]2C(=O)O[C@H](CCCc2ccccc2)c2cccc(/C(=C\CCc3ccccc3)c3cccnc3)c2)cc(OC)c1OC [Compound 6]
> 10000 | CCOc1ccc(OCC)c(-c2cccc([C@H](CCCc3ccccc3)OC(=O)[C@@H]3CCCCN3C(=O)C(=O)c3cc(OC)c(OC)c(OC)c3)c2)c1 [Compound 7]
1000 | CCOc1ccc(OCC)c(-c2cccc([C@@H](CCCc3ccccc3)OC(=O)[C@@H]3CCCCN3C(=O)C(=O)c3cc(OC)c(OC)c(OC)c3)c2)c1 [Compound 8]
16 | CCOc1ccc(OCC)c(-c2cncc([C@@H](CCCc3ccccc3)OC(=O)[C@@H]3CCCCN3C(=O)C(=O)c3cc(OC)c(OC)c(OC)c3)c2)c1 [Compound 10]
27 | CCOc1ccccc1-c1cncc([C@H](CCCc2ccccc2)OC(=O)[C@@H]2CCCCN2C(=O)C(=O)c2cc(OC)c(OC)c(OC)c2)c1 [Compound 19]
30 | COc1cc(C(=O)C(=O)N2CCCC[C@H]2C(=O)O[C@@H](CCCc2ccccc2)c2cncc(-c3c(OC)cccc3OC)c2)cc(OC)c1OC [Compound 25]
> 30 | CCCC/C=C(/c1cccnc1)c1cccc([C@H](CCCc2ccccc2)OC(=O)[C@@H]2CCCCN2C(=O)C(=O)c2cc(OC)c(OC)c(OC)c2)c1 [Compound 36]
45 | CCC/C=C(/c1ccc(C)cc1)c1cncc([C@H](OC(=O)[C@@H]2CCCCN2C(=O)C(=O)c2ccc(F)cc2)/C(C)=C/[C@H]2CC[C@H](O)CC2)c1 [Compound 39]
67 | COCc1cccc(COC)c1-c1cncc([C@H](OC(=O)[C@@H]2CCCCN2C(=O)C(=O)c2ccco2)/C(C)=C/[C@H]2CC[C@H](O)CC2)c1 [Compound 41]
2100 | CCC/C=C(\c1cncc([C@@H](OC(=O)[C@@H]2CCCCN2C(=O)C(=O)c2ccc(F)cc2)/C(C)=C/[C@H]2CC[C@H](O)CC2)c1)C1CCCCC1 [Compound 42]
100 | CCC/C=C(\c1cncc([C@H](OC(=O)[C@@H]2CCCCN2C(=O)C(=O)c2ccco2)/C(C)=C/[C@H]2CC[C@H](O)CC2)c1)C1CCCCC1 [Compound 46]
120 | COC/C=C(\c1cncc([C@@H](OC(=O)[C@@H]2CCCCN2C(=O)C(=O)c2ccco2)/C(C)=C/[C@H]2CC[C@H](O)CC2)c1)C1CCCCC1 [Compound 48]
> 10000 | CCOCc1cccc(COCC)c1-c1csc(C(CCN2CCOCC2)OC(=O)[C@@H]2CCCCN2C(=O)C(=O)C(C)(C)COC)c1 (stereo partly drawn) [Compound 49]
